Experimental data reported in ChEMBL document CHEMBL3046964, “Synthesis of novel building blocks of 1H-pyrrolo[3,4-b]quinolin-3(2H)-one and evaluation of their antitumor activity” (Med Chem Res, 2013).

Legend:
[1] = tested on: SK-N-SH; test: Cytotoxicity against Homo sapiens (human) SK-N-SH cells assessed as growth inhibition after 48 hr by MTT assay; assay type: functional, cell-based
[2] = tested on: A549; test: Cytotoxicity against Homo sapiens (human) A549 cells assessed as growth inhibition after 48 hr by MTT assay; assay type: functional, cell-based; conditions: A549, 48 h

SMILES | IC50 [1] | IC50 [2]
O=C(O)Cc1ccc(/C=C/CN2Cc3cc4ccccc4nc3C2=O)cc1 | 56.6 µM | 
O=C(Cc1ccc(/C=C/CN2Cc3cc4ccccc4nc3C2=O)cc1)N1CCN(c2ccccc2)CC1 | 51.9 µM | 53.5 µM
COc1ccc(N2CCN(C(=O)Cc3ccc(/C=C/CN4Cc5cc6ccccc6nc5C4=O)cc3)CC2)cc1 | 56.3 µM | 
O=C(Cc1ccc(/C=C/CN2Cc3cc4ccccc4nc3C2=O)cc1)N1CCN(c2ccc([N+](=O)[O-])cc2)CC1 | 56.2 µM | 43.8 µM
O=C(Cc1ccc(/C=C/CN2Cc3cc4ccccc4nc3C2=O)cc1)N1CCOCC1 | 8.62 µM | 46.2 µM
O=C(Cc1ccc(/C=C/CN2Cc3cc4ccccc4nc3C2=O)cc1)N1CCCC1 | 57.2 µM | 
O=C(Cc1ccc(/C=C/CN2Cc3cc4ccccc4nc3C2=O)cc1)N1CCCCC1 | 38.3 µM | 67.8 µM
CC(C)N(C(=O)Cc1ccc(/C=C/CN2Cc3cc4ccccc4nc3C2=O)cc1)C(C)C | 43.2 µM | 70.1 µM
O=C(Cc1ccc(/C=C/CN2Cc3cc4ccccc4nc3C2=O)cc1)NCCO | 42.1 µM | 
O=C(Cc1ccc(CCCN2Cc3cc4ccccc4nc3C2=O)cc1)N1CCN(c2ccccc2)CC1 | 42 µM | 65.4 µM
COc1ccc(N2CCN(C(=O)Cc3ccc(CCCN4Cc5cc6ccccc6nc5C4=O)cc3)CC2)cc1 | 48.9 µM | 68.8 µM
O=C(Cc1ccc(CCCN2Cc3cc4ccccc4nc3C2=O)cc1)N1CCN(c2ccc([N+](=O)[O-])cc2)CC1 | 40.2 µM | 
COc1cccc2c1C(=O)c1c(O)c3c(c(O)c1C2=O)C[C@@](O)(C(=O)CO)C[C@@H]3O[C@H]1C[C@H](N)[C@H](O)[C@H](C)O1 [DOXORUBICIN] |  | 24.3 µM
O=c1c2ccccc2nc2n1Cc1cc3ccccc3nc1-2 [LUOTONIN A] | 61.1 µM | 61.2 µM
